Source: ChEMBL document CHEMBL5214893, “Saponins from Saffron Corms Inhibit the Gene Expression and Secretion of Pro-Inflammatory Cytokines” (J Nat Prod, 2021)
Active and inactive are the calls of the source.

Assays:
Format in all cases: functional, cell-based
Conditions in all cases: time 48.0 hrs
HaCaT [1] = assay: […] of TNF-alpha/IFN-gamma induced MCP-1 expression in human HaCaT cells at 20 uM preincubated for 24 hrs followed by stimulation and measured after […] by ELISA analysis
HaCaT [2] = assay: Downregulation of TNF-alpha/IFN-gamma induced RANTES expression in human HaCaT cells at 20 uM preincubated for 24 hrs followed by stimulation and measured after […] by ELISA analysis
HaCaT [3] = assay: Effect on TNF-alpha/IFN-gamma induced- MCP-1 secretion in human HaCaT cells at 1 uM preincubated for 24 hrs followed by stimulation and measured after […] by ELISA analysis
HaCaT [4] = assay: Effect on TNF-alpha/IFN-gamma-induced RANTES secretion in human HaCaT cells at 1 uM preincubated for 24 hrs followed by stimulation and measured after […] by ELISA analysis
HaCaT [5] = assay: Effect on TNF-alpha/IFN-gamma-induced RANTES secretion in human HaCaT cells at 20 uM preincubated for 24 hrs followed by stimulation and measured after […] by ELISA analysis

Measured: Activity

C[C@@H]1O[C@@H](OCCCCCCC(=O)CCCCCCC(CC(=O)O[C@@H]2[C@H](O)[C@@H](O[C@@H]3O[C@@H](C)[C@H](O[C@@H]4OC[C@@H](O)[C@H](O)[C@H]4O)[C@@H](O)[C@H]3O[C@@H]3OC[C@H](O)[C@H](O)[C@H]3OC3O[C@H](CO)[C@H](O)[C@H](O)[C@H]3O)[C@H](OC(=O)[C@]34CCC(C)(C)C[C@H]3C3=CC[C@@H]5[C@@]6(C)CC[C@H](O[C@@H]7O[C@H](C(=O)O)[C@H](O)[C@H](O)[C@H]7O)C(C)(C)[C@@H]6CC[C@@]5(C)[C@]3(C)C[C@H]4O)O[C@@H]2C)O[C@H]2O[C@H](C)[C@@H](O)[C@H](O)[C@@H]2O)[C@H](O)[C@H](O)[C@H]1O (stereo partly specified)
active: HaCaT [1] | HaCaT [2] | HaCaT [3] | HaCaT [4]

C[C@]12CCC(=O)C=C1CC[C@@H]1[C@@H]2[C@@H](O)C[C@@]2(C)[C@H]1CC[C@]2(O)C(=O)CO
active: HaCaT [1] | HaCaT [2] | HaCaT [5]

C[C@@H]1O[C@@H](OCCCCCCC(=O)CCCCCCC(CC(=O)O[C@@H]2[C@H](O)[C@@H](O[C@@H]3O[C@@H](C)[C@H](O[C@@H]4OC[C@@H](O)[C@H](O)[C@H]4O)[C@@H](O)[C@H]3O[C@@H]3OC[C@H](O)[C@H](O)[C@H]3OC3O[C@H](CO)[C@H](O)[C@H](O)[C@H]3O)[C@H](OC(=O)[C@]34CCC(C)(C)C[C@H]3C3=CC[C@@H]5[C@@]6(C)CC[C@H](O[C@@H]7O[C@H](C(=O)O)[C@@H](O)[C@H](O)[C@H]7O)C(C)(C)[C@@H]6CC[C@@]5(C)[C@]3(C)C[C@H]4O)O[C@@H]2C)O[C@H]2O[C@H](C)[C@@H](O)[C@H](O)[C@@H]2O)[C@H](O)[C@H](O)[C@H]1O (stereo partly specified)
active: HaCaT [1] | HaCaT [2] | HaCaT [3] | HaCaT [4]
